Measured values reported in PMC12018770, “DEAD‐Box Helicase 6 Blockade in Brain‐Derived Aβ Oligomers From Alzheimer's Disease Patients Attenuates Neurotoxicity” (MedComm, 2025).
“Also recorded” adds a separate entry of the source.

Legend:
[1] = tested on: GST‐DDX6; assay: GST pulldown with GST‐DDX6; assay type: binding; conditions: 150 µg GST‐DDX6, 300 µg recombinant Aβ oligomers or negative control protein, overnight; n = 3
Procedure: We conducted a series of in vitro experiments to investigate the mechanism by which DDX6 blockade affects Aβ oligomer neurotoxicity.
In accordance with the protocol provided in the GST pulldown kit (#21516; Thermo Fisher Scientific), 150 µg of GST‐DDX6 protein were rotated with 50 µL of glutathione agarose resin at 4°C for 3 h. The resin was then incubated overnight with 300 µg of recombinant Aβ oligomers or a negative control protein, washed with pH 8.0 glutathione elution buffer, and validated by dot blotting.

[2] = tested on: human‐derived Aβ oligomers; assay: AP-MS with SAINTexpress scoring of binding to human‐derived Aβ oligomers; conditions: score 0 to 1; criteria SAINT score > 0.5 and fold change ≥ 2; AD1–AD6, n = 6
Description: Not all identified proteins bind to Aβ oligomers. Therefore, we used the SAINTexpress statistical method to screen for proteins most likely to interact with human‐derived Aβ oligomers. SAINTexpress assigns probability scores to factors interacting with target proteins, providing a value between 0 and 1, where higher scores indicate a greater likelihood of interaction with Aβ oligomers. Based on the analyzed results, we plotted the fold change on the x‐axis and SAINT scores on the y‐axis, with each point representing a protein. Proteins meeting the criteria of a SAINT score > 0.5 and fold change ≥ 2 were considered the most likely to bind Aβ oligomers (highlighted in red). Through rigorous analysis, we identified four proteins as binding partners (Figure 1C): DDX6 (SAINT score = 0.5783), DSP (SAINT score = 0.6608), JUP (SAINT score = 0.5846), and HRNR (SAINT score = 0.5246).
An aliquot of each peptide mixture was loaded onto a trap column (in‐house‐fabricated column packed with a reversed‐phase ReproSil‐Pur C18‐AQ resin, 150 µm × 15 cm, C18, 3 µm, 100 Å, Dr. Maisch GmbH, Germany) connected to an analytical column (EASY‐Spray column, […] × 75 µm ID, PepMap RSLC C18, 2 µm, 100 Å, Thermo Scientific, USA) using the autosampler of an EASY‐nLC 1200 HPLC system (Thermo Fisher Scientific). The peptides were eluted using a gradient (solvent A: 0.1% formic acid in water; solvent B: 80% acetonitrile/0.1% formic acid in water; Sigma, Germany) directly into a Q Exactive Hybrid Quadrupole‐Orbitrap mass spectrometer (Thermo Fisher Scientific). The gradient program was as follows: 4%–8% solvent B over 2 min, 8%–28% solvent B over 43 min, 28%–40% solvent B over 10 min, 40%–95% solvent B over 1 min, and 95% solvent B for 10 min. The following mass spectrometry parameters were used: spray voltage, 2.2 kV; capillary temperature, 270°C; MS resolution, 70,000 at 400 m/z; MS precursor m/z range, 300.0–1800.0 m/z; activation type, high‐energy collision dissociation; normalized collision energy, 28.0; activation time, […]; and data‐dependent MS/MS, top 20 most intense peptide ions selected based on the preview scan in the Orbitrap.
The raw MS files (Figure S5) were analyzed and searched against species‐specific protein databases using MaxQuant (v1.6.2.10). The following parameters were applied: maximum missed cleavages, 2; precursor ion mass tolerance, 20 ppm; and MS/MS tolerance, 20 ppm. Peptides and proteins were filtered to achieve a false discovery rate of < 1% using a target‐decoy database strategy, and only proteins with at least two unique peptides were reported. […] SAINT is a probabilistic method for scoring protein–protein interactions in AP‐MS experiments, enabling the identification of proteins most likely to interact with target proteins. […]

[3] = tested on: Aβ oligomers in AD brain; assay: IHC colocalization with Aβ oligomers in AD brain sections; parameters: species or system human; conditions: AD7–AD10, n = 4; fluorescence scan over 120 µm
Description: To further validate the binding interactions between Aβ oligomers and the four proteins, we performed immunohistochemistry (IHC) on brain sections from four AD patients (AD7–AD10). We analyzed the colocalization of Aβ oligomers (red) with DDX6, JUP, HRNR, and DSP (all green), as well as 4',6‐diamidino‐2‐phenylindole (DAPI)‐stained nuclei (blue). […] We also performed fluorescence intensity scanning from left to right across stained brain tissue slices (120 µm). […] The combined results from co‐IP and IHC confirm that these four proteins can bind to Aβ oligomers.
Sections were dewaxed, subjected to antigen retrieval, and blocked. They were then incubated with primary antibody (1:500) overnight at 4°C, followed by secondary antibody (1:200). Nuclei were stained with DAPI (Beyotime; C1002, Shanghai, China) for 10 min in the dark.

[4] = tested on: Aβ fibrillar plaques; assay: ThT‐binding assay, fluorescence microscopy of fibrillar plaques; assay type: biochemical; conditions: DDX6 10 µM, Aβ42 20 µM, Aβ42 oligomers 5 µM; n = 3
[5] = tested on: human‐derived Aβ oligomers; assay: Co-immunoprecipitation / Western blotting of protein-Aβ oligomer interaction in AD brain extracts; assay type: binding; conditions: IgG isotype control
Description: After rigorous data analysis with SAINTexpress, four proteins (DDX6, DSP, JUP, and HRNR) were identified as potential Aβ oligomer‐binding partners. To validate these findings, we selected DSP and DDX6 as positive controls for co‐IP analysis; tau proteins were used as negative controls. Input samples, IP, co‐IP extracts, and IgG controls were adjusted to ensure equal amounts of protein for comparison. […] The IP enrichment effect was substantial for Aβ oligomers, DDX6, DSP, and tau proteins. In the co‐IP extracts for DDX6 and DSP, Aβ oligomers were detected at approximately 55 and 30 kDa, respectively (indicated by “ [drawing 1] ”). […] Isotype control IgG was used to exclude nonspecific binding (Figure 2A).
A Co‐IP kit (Thermo Fisher Scientific; #26149, USA) was used for the assay. Antibodies (2 µg) were crosslinked to a reinforced AminoLink coupling resin (20 µL of beads) and immobilized on a Pierce spin column at room temperature. Protein extracts (1 mg) were added to the spin column and incubated overnight at 4°C with rotation. The spin column was then transferred to a new collection tube, and 60 µL of elution buffer (pH 2.8, containing tertiary amine) was added. The column was centrifuged, and the eluate was analyzed to detect the presence of the target protein.
Protein concentrations in the co‐IP extracts were measured using a bicinchoninic acid assay (#23225, Thermo Fisher Scientific, USA). For each sample, 20 µL of protein was loaded, with the following amounts of human‐derived Aβ oligomers (AD1–AD6) used: 1.8 µg, 2.0 µg, 1.9 µg, 1.6 µg, 2.0 µg, and 1.8 µg, respectively. Equivalent amounts of co‐IP extracts were loaded into the remaining lanes. A 5× loading buffer was added to the protein samples to achieve a final concentration of 1×, and the samples were incubated at 95°C for 5 min [44]. […]
B. The PVDF membrane was probed with the Aβ oligomer antibody (A11), indicating enrichment of Aβ oligomers (post-IP) with bands observed at 55 kDa and 30 kDa. Aβ oligomers were detected in the co-IP products of DDX6 (indicated by “✸”). […]

Aβ42 oligomers: oligomers prepared from Aβ42 peptide (Abcam #ab120301), PBS, 72 h at 4°C
pulldown by GST‐DDX6 [1]: successfully pulled down

DEAD‐box helicase 6 [DDX6]
SAINT score [2]: 0.5783
colocalization with Aβ oligomers [3]: strong colocalization
fluorescence intensity by microscopy (in words) [4]: showed no effects on fluorescence intensity
binding to Aβ oligomers by co‐IP [5]: DDX6 and DSP were also detected in Aβ oligomer co‐IP extracts; also recorded: DDX6 was detected in the co-IP products of Aβ oligomers
